Experimental data published in US8426644B2, “Compositions and methods for inhibiting an isoform of human manganese superoxide dismutase” (MitoTek, LLC, priority 2005, dated 2013).
Numbering of substitutions follows the chain as printed.

Legend:
[1] = tested on: AMP kinase phosphorylation at Thr172; experiment: Doxorubicin-induced activation of AMP kinase in heart explants, western immunoblot (Example 22); assay type: cell-based; conditions: rat heart explants
Procedure: Hearts from 4 week rats were excised and minced without trypsin in 50:50 medium M199:MCDB 10% FBA containing 5 mM Creatine, 2 mM L-carnitine and 5 mM taurine. Explants were incubated overnight at 37° C. in a 5% CO2 incubator untreated (Lane 1), with 1 mM doxorubicin (Lane 2), and with 1 mM doxorubicin and 4 μM 2-(3,4-dihydroxy-phenyl)-N-heptadec-8-enyl-acetamide (IV) (Lane 3). Explants were frozen at −70° C., liquid nitrogen powders were prepared and lysed and denatured in 2% SDS with 5% BME with boiling for 5 min. Protein extracts were examined by western immunoblotting using a rabbit monoclonal recognizing Phospho-AMP Kinase-α (Thr172) (CellSignal).
The AMP kinase was activated by an elevated AMP(high)/ATP(low) ratio due to cellular and environmental stress, such as heat shock, hypoxia and ischemia. Elevated AMP/ATP ratio and activation of AMPK by phosphorylation at Thr172 can also occur by uncoupling mitochondrial oxidative phosphorylation from respiration with oligomycin and thereby loss of mitochondrial ATP synthesis.

isoMnSOD expression = experiment: Doxorubicin induction of isoMnSOD expression in adult heart explants, Western Blot (Example 9); assay type: cell-based, rat; conditions: 3 days, 0.1 nM to 1.0 μM Doxorubicin in AdvDMEM 2% FBS, FIG. 3
Procedure: Briefly, after rats (5 weeks old) were killed by decapitation, the hearts were aseptically excised and residual blood was removed. The heart was perfused in Joklik's medium (containing Joklik's minimal essential medium, 25 mmol/L glutamic acid, 30 mmol/L taurine, and 1 mmol/L adenosine) without recirculation on a modified Langendorff apparatus for approximately 10 minutes at 37° C. The perfusion was then continued for 30 minutes at the same temperature, with recirculation in Joklik's medium containing collagenase type II (100 U/mL). After perfusion, the ventricles were cut into small pieces and tritulated in 0.05% Trypsin/EDTA for 10 min. Cardiac explants were cultured overnight on laminin-coated (20 μg per well) 35-mm six-well plates in medium 199 containing 5% FBS, 5 mM creatine, 2 mM L-carnitine, and 5 mM taurine. Explants were treated with doxorubicin (Sigma) shortly after plating for 24 hrs at 1 mM.

[2] = tested on: altMnSODreport reporter expression; experiment: Reporter gene system (altMnSODreport) to analyze compounds for toxicity (Example 17); assay type: cell-based; conditions: cells comprising the reporter gene system; written in present tense
Description: The test reporter system utilizes a recombinant DNA construct that contains an in frame fusion of a genomic fragment spanning MnSOD Exon 2 to Exon 4, but which also harbors a mutant MnSOD Exon 3, (i.e. frameshift mutation), to a B-galactosidase gene, or Green Fluorescence Protein (“altMnSODreport”). Alternative splicing and skipping of MnSOD (coding) Exon 3 will result in a fusion protein comprising a short stretch of MnSOD E2 and E4 coding sequences N-terminal to a reporter protein; the MnSODE2E4 amino acid sequence is 20 amino acids and should not interfere with the expression of the reporter. […]
Breast cancer cell line, MDA-MB-435, Her-2/neu over-expressing (ATCC), fibroblast cells lines NIH3T3 and B104, which are NIH3T3 cells transfected with the rat ErbB2/Her2 oncogene, and normal primary cells (Clonetics; rat cardiomyocytes, donated by Kathryn Maschhoff, MD PhD, Neonatology, University of Pennsylvania) are treated with doxorubicin alone and in combination with the rat ErbB2/Her2 17.6.4 monoclonal antibody, which downregulates the human and rat Her2 receptor (Zhang et al., 1999) (Oncogene), and Herceptin™ (Genentech). It is also determined if the Her2 mAbs induces isoMnSOD expression in untransfected cells and cells transfected with altMnSODreport. […]

isoMnSOD [3] = target: T1, isoMnSOD (Mus musculus, UniProt P09671, DEL77-115); experiment: isoMnSOD peroxidative activity, cerebellum mitochondrial extracts on nitrocellulose strips (Example 20); assay type: biochemical; conditions: 1 μM of compound, 30 min at room temperature; cerebellum of 4 week mice; 1 mM hydrogen peroxide, luminol; FIG. 7
T1 construct: Mitochondrial pellets were lysed in 1% CHAPS detergent; from tissue; host or cells: mouse cerebellum mitochondria
T1 sequence (P09671 with tags, fused parts or gaps DEL77-115): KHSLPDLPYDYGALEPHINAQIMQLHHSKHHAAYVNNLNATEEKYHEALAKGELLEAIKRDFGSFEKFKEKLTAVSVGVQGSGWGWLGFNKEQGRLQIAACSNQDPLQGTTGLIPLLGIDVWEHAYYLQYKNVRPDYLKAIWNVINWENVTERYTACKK
Procedure: Protein extracts containing isoMnSOD were prepared from cerebellum from 4 week mice by first forming a liquid nitrogen powder, resuspended with five volumes of ice-cold lysis buffer (in mM: 20 HEPES-KOH, pH 7.5, 10 KCl, 1.5 MgCl2, 1 DTT, 1 EDTA, 1 EGTA, and 0.1 PMSF) containing 70 mM mannitol and 250 mM sucrose and homogenizing with a Dounce homogenizer. Extract was centrifuged at 750 g for 10 min at 4° C. and the supernatant was then centrifuged at 10,000 g for 15 min at 4° C. to pellet the mitochondrial pellet, which was then stored frozen. Mitochondrial pellets were lysed in 1% CHAPS detergent containing 50 mM Tris-Cl, pH 8.0, 500 mM NaCl and then loaded onto a native 5% polyacrylamide gel. Protein concentration was measured by using the Bradford protein assay kit. After transfer to nitrocellulose, nitrocellulose strips were incubated with 1 μM of compound in 50 mM Tris-HCl, 50 mM NaCl, 5 mM EDTA, pH 8.0 for 30 min at room temperature, then washed extensively with incubation buffer alone. The peroxidative activity of isoMnSOD was measured using 100 of Femtomole luminol (Pierce) containing 1 mM hydrogen peroxide per nitrocellulose strip and exposed to x-ray film.

[4] = target: T2, MnSOD-Exon3-deleted isoform (isoMnSOD) (Homo sapiens, UniProt P04179); experiment: Detection of inhibitors bound to isoMnSOD by combined immunoprecipitation/western blot (Example 13); assay type: binding; conditions: immunoprecipitation with anti-dopamine or anti-serotonin antibody, isoMnSOD detected; FIG. 2A, 2B
T2 sequence (P04179 25-183 isoform P04179-2 limits assumed): T1 sequence (P09671 with tags, fused parts or gaps DEL77-115) with A40V, H46Q, E66D, V75A, Q93R, R95H, S102P, T155M
Procedure: Covalent modification of the MnSOD-Exon3-deleted isoform was measured by a combined immunoprecipitation/western blot analysis. Immunoblots for detecting AA-DA, EPA-DA, DHA-DA, C18:4(ω-3)-DA adducts were performed using anti-dopamine rabbit polyclonal (Chemicon) and anti-serotonin goat polyclonal antibodies (ImmunoStar), respectively. After immunoprecipitating using an antibody against the inhibitor, isoMnSOD was detected as described above.

isoMnSOD [5] = experiment: Inhibition of pro-oxidant activity of isoMnSOD, at least one of the assays of the Examples; conditions: according to at least one of the assays provided in the Examples
isoMnSOD [6] = experiment: Drug inhibition method: peroxidative activity of isoMnSOD on PVDF strips (Example 4); conditions: 1 μM test compound in TBS, 30 minutes; pancreatic mitochondria native extracts on PVDF; 1 mM H2O2, luminol; FIG. 4
Procedure: Each test compound was prepared by mixing 5 μL of a 1 mM test compound stock solution in ethanol with 5 μL of 0.1 M KOH, followed by the addition of 5 ml of TBS for a final concentration of 1 μM test compound. Equal amounts of native protein extracts from pancreatic mitochondria (obtained according to the protocol of Example 5) were loaded in separate wells and resolved in a 7% PAGE gel without SDS, electrotransferred to PVDF and divided into strips. Each PVDF strip was incubated with 1 μM of test compound in TBS for 30 minutes, washed twice in TBS for 20 minutes, and the peroxidative activity of isoMnSOD was measured by incubation of each strip with 1 mM H2O2 in 0.4 ml of the luminol solution contained within the Femtomole chemiluminescence assay kit (Pierce) and exposed to x-ray film (FIG. 4).
All procedures were carried out at 4° C. Mitochondria were obtained from a liquid nitrogen powder of one pig pancreas (˜8 g), which was resuspended in 15 ml of buffer A containing following protease inhibitors: 1 μg/ml aprotinin, 1 μg/ml pepstatin A, 1 μg/ml chymostatin A, 2 μg/ml leupeptin, 2 μM benzamide hydrochloride, and 1 μM phenylmethylsulfonyl fluoride. Tissue was broken with a Potter homogenizer and the homogenate was centrifuged for 10 min at 800 g to remove cell debris. The supernatant was centrifuged at 10,000 g from 15 min to recover mitochondria. The mitochondrial pellet was washed twice with a hand held Dounce homogenizer and mitochondria were stored frozen. Mitochondria were lysed by slowly adding 1 ml of M-Per (Pierce) containing 1/10 vol 5M NaCl and 1/10 vol Buffer A. The mitochondrial lysate was subsequently clarified by centrifugation for 10 min at 2000 g.

[7] = tested on: mitochondrial peroxidase activity (isoMnSOD); experiment: Peroxidative assay (ROS-activity blot) of mitochondrial extracts from treated pancreatic explants (Example 12); assay type: cell-based, pig; conditions: pancreatic explant cultured 1 hr at 37° C. with equal volume of 2 μM compound, FIG. 1
Procedure: F10 medium was used throughout the procedure. Pancreas (8 grams) from a 3 kilo pig was minced, washed twice, and 1 g of tissue was resuspended in 5 ml of F10 medium. […] Explants were stored frozen at −70° C. Tissue was homogenized in Buffer A at 4° C. and mitochondria was isolated by differential centrifugation and stored frozen at −70° C. Peroxidative assay of native mitochondrial extracts analyzed by the ROS-activity blot.

[8] = tested on: PC12 neuroendocrine cell line; experiment: Hydrogen peroxide-mediated cell death, Live/Dead assay (Example 21); assay type: cell-based; conditions: PC12 preincubated with 4 μM for 1 hr, then 1 mM hydrogen peroxide, 20 hrs; FIG. 8
Procedure: Neuroendocrine cell line, PC12, was cultured in DMEM medium containing 10% FBS on plates treated with collagen. Freshly passed cells (1×10(7) cells) were preincubated with 4 μM 2-(3,4-dihydroxy-phenyl)-N-heptadec-8-enyl-acetamide (IV), 2-(2,5-dihydroxy-phenyl)-N-heptadec-8-enyl-acetamide (V) (containing about 30% impurity), or other compound for 1 hr and then treated with 1 mM hydrogen peroxide. After 20 hrs, cultures were examined by the Live/Dead assay (Molecular Probes).

Rats = experiment: Doxorubicin-induced heart failure in rats (Example 23); assay type: in vivo, rat; conditions: IP 10 mg/kg doxorubicin, FIG. 10
Procedure: Rats were treated with IP injections of 10 mg/kg doxorubicin. Left Ventricular Developed Pressure (LVDP): Systolic Pressure-Diastolic Pressure, which is an indicator of ventricular systolic function; dP/dtmax: Maximal rate of pressure development, which is an indicator of ventricular systolic function; dP/dtmin Minimal rate of pressure development, which is an indicator of ventricular diastolic function.

isoMnSOD [9] = target: T3, isoMnSOD (Rattus norvegicus, UniProt P07895, DEL77-115); experiment: Immunodetection of isoMnSOD in treated cerebella explants (Example 24); assay type: cell-based; conditions: cerebella explants of 4 week rat, one hour at 37° C., 5 μM OA-diHPAc; western immunoblot
T3 construct: Cerebella explants from one 4 week rat, strain WKY; from tissue; host or cells: rat (WKY) cerebellum explants
T3 sequence (P07895 with tags, fused parts or gaps DEL77-115): T1 sequence (P09671 with tags, fused parts or gaps DEL77-115) with A33T, A40V, T151S, E152Q, T155I, A156V
Procedure: Immuno detection of isoMnSOD and measurement of isoMnSOD (a) and measurement of caspase 9 cleavage (b) in cerebella explants from 4 week old rat cerebellum and treated with 2-(3,4-dihydroxy-phenyl)-N-heptadec-8-enyl-acetamide (IV). Cerebella explants from one 4 week rat, strain WKY, were incubated in aerated 4 mL of M199:MCDB 10% FBS and incubated one hour at 37° C. in a roller bottle for maximum oxygenation, with or without 5 μM OA-diHPAc. Explants were harvested, quick frozen, and then lysed in boiling SDS and 5% BME and protein extracts were separated in a 4-12% polyacrylamide gel (Novex) and examined by western immunoblot. […] The peptide sequence used as the antigen to form the MnSOD E2/E4 antibody is at the active site of isoMnSOD and modification of isoMnSOD by 2-(3,4-dihydroxy-phenyl)-N-heptadec-8-enyl-acetamide (IV) appears to block epitope recognition. RT/PCR analysis of the MnSOD mRNAs confirmed that the mRNA encoding isoMnSOD is present in treated explants.

Compound | Inhibition (isoMnSOD [3]) | binding to isoMnSOD (covalent modification) [4] | inhibition of pro-oxidant activity of isoMnSOD (isoMnSOD [5]) | inhibition of peroxidative activity of isoMnSOD (isoMnSOD [6]) | inhibition of mitochondrial peroxidase activity [7] | other results
COc1cccc2c1C(=O)c1c(O)c3c(c(O)c1C2=O)C[C@@](O)(C(=O)CO)C[C@@H]3O[C@H]1C[C@H](N)[C@H](O)[C@H](C)O1 [Doxorubicin] | – | – | – | – | – | Activation of AMP kinase by phosphorylation at Thr172 ([1]; 1 mM doxorubicin overnight, FIG. 9 Lane 2): Activation; isoMnSOD expression (isoMnSOD expression): induced isoMnSOD expression; expression of altMnSOD report [2]: causes an increase
Prostaglandin A1-biotinimide | yes | – | – | – | – | –
CC/C=C\C/C=C\C/C=C\C/C=C\C/C=C\C/C=C\CCC(=O)NCCc1ccc(O)c(O)c1 [docosahexaenoyl (DHA)-dopamine, docosahexaenoyl dopamine] | – | able to bind to isoMnSOD | inhibit pro-oxidant activity of isoMnSOD | inhibit peroxidative activity more significantly than the other compounds | inhibited the mitochondrial peroxidase activity | –
COC1=C(OC)C(=O)C(CCCCCCCCCCO)=C(C)C1=O [Idebenone] | no | – | – | – | – | –
Arachidonic acid-biotinimide | yes | – | – | – | – | –
CCCCC/C=C\C/C=C\C/C=C\C/C=C\CCCC(=O)NCCc1c[nH]c2ccc(O)cc12 [arachidonoyl-serotonin, arachidonoyl serotonin] | – | able to bind to isoMnSOD | inhibit pro-oxidant activity of isoMnSOD | – | inhibited the mitochondrial peroxidase activity | –
C18:4(ω-3)-dopamine | – | able to bind to isoMnSOD | inhibit pro-oxidant activity of isoMnSOD | inhibit peroxidative activity more significantly than the other compounds | inhibited the mitochondrial peroxidase activity | –
CCCCCCCC/C=C\CCCCCCCNC(=O)Cc1ccc(O)c(O)c1 [2-(3,4-dihydroxy-phenyl)-N-heptadec-8-enyl-acetamide] | yes | – | – | – | – | suppression of doxorubicin-induced AMP kinase activation ([1]; 1 mM doxorubicin and 4 μM compound overnight, FIG. 9 Lane 3): suppresses this activation; Protection of hydrogen peroxide-mediated cell death [8]: Protection; cardio protection of doxorubicin-induced heart failure (LVDP, dP/dtmax, dP/dtmin) (Rats): exerts cardio protection; antigenicity of isoMnSOD with MnSOD E2/E4 peptide antibody and MnSOD antibody (isoMnSOD [9]): loss of antigenicity with the MnSOD E21E4 peptide antibody but not with the MnSOD antibody
CC/C=C\C/C=C\C/C=C\C/C=C\C/C=C\CCCC(=O)NCCc1ccc(O)c(O)c1 [eicosapentaenoyl (EPA)-dopamine, eicosapentaenoyl dopamine] | – | – | inhibit pro-oxidant activity of isoMnSOD | inhibit peroxidative activity more significantly than the other compounds | did not inhibit peroxidase activity to the same effect | –
CCCCCCCC/C=C\CCCCCCCNC(=O)Cc1cc(O)ccc1O [2-(2,5-dihydroxy-phenyl)-N-heptadec-8-enyl-acetamide] | yes | – | – | – | – | –
